Results reported in patent US20250051300A1, “GRAM-NEGATIVE SPECIFIC ANTIBIOTICS SPARING EFFECT ON GUT MICROBIOME” (THE BOARD OF TRUSTEES OF THE UNIVERSITY OF ILLINOIS, priority 2021, published 2025).
≈ marks a conversion by molar mass, not a printed value. Where two headings read alike, the source gives them in different places.

Tests used:
Escherichia coli = assay: MIC, micro-dilution broth method (CLSI); assay type: cell-based; conditions: Escherichia coli
Acinetobacter baumannii = assay: MIC, micro-dilution broth method (CLSI); assay type: cell-based
From the text: (§1) Antimicrobial susceptibility assays.

Bacillus cereus = assay: MIC, micro-dilution broth method (CLSI); assay type: cell-based; conditions: ATCC11778; Bacillus cereus ATCC 11778
From the text: as §1

Bacillus subtilis = assay: MIC, micro-dilution broth method (CLSI); assay type: cell-based; conditions: Bacillus subtilis PY79
From the text: as §1

Enterococcus faecium = assay: MIC, micro-dilution broth method (CLSI); assay type: cell-based; conditions: ATCC19434; Enterococcus faecium ATCC 19434
From the text: as §1

Listeria monocytogenes = assay: MIC, micro-dilution broth method (CLSI); assay type: cell-based; conditions: ATCC19115; Listeria monocytogenes ATCC 19115
From the text: as §1

Pseudomonas aeruginosa = assay: MIC, micro-dilution broth method (CLSI); assay type: cell-based
From the text: as §1

Staphylococcus aureus = assay: MIC, micro-dilution broth method (CLSI); assay type: cell-based; conditions: ATCC29213; Staphylococcus aureus ATCC 29213
From the text: as §1

[1] = test system: Staphylococcus epidermidis; assay: MIC, micro-dilution broth method (CLSI); assay type: cell-based; conditions: Staphylococcus epidermidis NRS101
From the text: as §1

Streptococcus pneumoniae = assay: MIC, micro-dilution broth method (CLSI); assay type: cell-based; conditions: Streptococcus pneumoniae Strain 1003
From the text: as §1

Streptococcus pyogenes = assay: MIC, micro-dilution broth method (CLSI); assay type: cell-based; conditions: Streptococcus pyogenes Strain 1055
From the text: as §1

Bacillus anthracis = assay: microbe, parasite or virus in culture; assay type: cell-based
Enterococcus faecalis = assay: MIC, micro-dilution broth method (CLSI); assay type: cell-based
Aqueous solubility limit = assay type: physicochemical; conditions: limit to which compounds were tested in MIC assays
E. coli AR0349 [2] = assay: Acute pneumonia bacterial burden model; assay type: in vivo, CD-1 mice; conditions: lungs, 72 h post-infection
E. coli AR0349 [3] = assay: Bacterial sepsis survival model; assay type: in vivo, CD-1 mice
E. cloacae AR0163 [4] = assay: Acute pneumonia bacterial burden model; assay type: in vivo, CD-1 mice; conditions: colistin-resistant E. cloacae, 100 mg/kg IP (FIG. 7E)
E. cloacae AR0163 [5] = assay: Bacterial sepsis survival model; assay type: in vivo, CD-1 mice; conditions: colistin-resistant E. cloacae, 100 mg/kg IP twice daily for 3 days (FIG. 7F)
gut microbiome = conditions: mouse, in vivo, po
Bacteroides vulgatus = assay: MIC, gut commensal bacteria, micro-dilution broth
[6] = test system: Bacteroides cellulosilyticus; assay: MIC, gut commensal bacteria, micro-dilution broth
Morganella morganii = assay: MIC, gut commensal bacteria, micro-dilution broth
Streptococcus salivarius = assay: MIC, gut commensal bacteria, micro-dilution broth
Blautia producta = assay: MIC, gut commensal bacteria, micro-dilution broth

Compound: Cc1cc(-c2c[nH]nc2-c2cccc(OCc3cccc(C#N)c3)c2)cc(C)n1 [Compound 12, 3-((3-(4-(2,6-dimethylpyridin-4-yl)-1H-pyrazol-3-yl)phenoxy)methyl)benzonitrile]
- MIC (Escherichia coli; ATCC25922, E. coli ATCC 25922, read-out: MIC): 1 µg/mL (≈ 2.63 µM)
- MIC (Escherichia coli; ATCCBAA2340, E. coli ATCC BAA-2340, read-out: MIC): 2 µg/mL (≈ 5.26 µM)
- MIC (Escherichia coli; ATCCBAA2469, E. coli ATCC BAA-2469, read-out: MIC): 1 µg/mL (≈ 2.63 µM)
- MIC (Escherichia coli; ATCCBAA2471, E. coli ATCC BAA-2471, read-out: MIC): 4 µg/mL (≈ 10.5 µM)
- MIC (Escherichia coli; E. coli AR0048, read-out: MIC): 4 µg/mL (≈ 10.5 µM)
- MIC (Escherichia coli; E. coli AR0055, read-out: MIC): 2 µg/mL (≈ 5.26 µM)
- MIC (Escherichia coli; E. coli AR0058, read-out: MIC): 2 µg/mL (≈ 5.26 µM)
- MIC (Escherichia coli; E. coli AR0061, read-out: MIC): 8 µg/mL (≈ 21 µM)
- MIC (Escherichia coli; E. coli AR0067, read-out: MIC): 2 µg/mL (≈ 5.26 µM)
- MIC (Escherichia coli; E. coli AR0069, read-out: MIC): 2 µg/mL (≈ 5.26 µM)
- MIC (Escherichia coli; E. coli AR0077, read-out: MIC): 1 µg/mL (≈ 2.63 µM)
- MIC (Escherichia coli; E. coli AR0081, read-out: MIC): 2 µg/mL (≈ 5.26 µM)
- MIC (Escherichia coli; E. coli AR0084, read-out: MIC): 2 µg/mL (≈ 5.26 µM)
- MIC (Escherichia coli; E. coli AR0085, read-out: MIC): 1 µg/mL (≈ 2.63 µM)
- MIC (Escherichia coli; E. coli AR0086, read-out: MIC): 0.5 µg/mL (≈ 1.31 µM)
- MIC (Escherichia coli; E. coli AR0089, read-out: MIC): 2 µg/mL (≈ 5.26 µM)
- MIC (Escherichia coli; E. coli AR0104, read-out: MIC): 1 µg/mL (≈ 2.63 µM)
- MIC (Escherichia coli; E. coli AR0114, read-out: MIC): 2 µg/mL (≈ 5.26 µM)
- MIC (Escherichia coli; E. coli AR0118, read-out: MIC): 1 µg/mL (≈ 2.63 µM)
- MIC (Escherichia coli; E. coli AR0119, read-out: MIC): 4 µg/mL (≈ 10.5 µM)
- MIC (Escherichia coli; E. coli AR0128, read-out: MIC): 1 µg/mL (≈ 2.63 µM)
- MIC (Escherichia coli; E. coli AR0137, read-out: MIC): 2 µg/mL (≈ 5.26 µM)
- MIC (Escherichia coli; E. coli AR0149, read-out: MIC): 2 µg/mL (≈ 5.26 µM)
- MIC (Escherichia coli; E. coli AR0150, read-out: MIC): 1 µg/mL (≈ 2.63 µM)
- MIC (Escherichia coli; E. coli AR0151, read-out: MIC): 2 µg/mL (≈ 5.26 µM)
- MIC (Escherichia coli; E. coli AR0162, read-out: MIC): 4 µg/mL (≈ 10.5 µM)
- MIC (Escherichia coli; E. coli AR0346, read-out: MIC): 2 µg/mL (≈ 5.26 µM)
- MIC (Escherichia coli; E. coli AR0348, read-out: MIC): 2 µg/mL (≈ 5.26 µM)
- MIC (Escherichia coli; E. coli AR0350, read-out: MIC): 1 µg/mL (≈ 2.63 µM)
- MIC (Escherichia coli; E. coli AR0493, read-out: MIC): 4 µg/mL (≈ 10.5 µM)
- MIC (Escherichia coli; E. coli AR0494, read-out: MIC): 4 µg/mL (≈ 10.5 µM)
- MIC (Escherichia coli; E. coli AR0495, read-out: MIC): 2 µg/mL (≈ 5.26 µM)
- MIC (Escherichia coli; E. coli AR0541, read-out: MIC): 1 µg/mL (≈ 2.63 µM)
- MIC (Escherichia coli; E. coli AR0543, read-out: MIC): 4 µg/mL (≈ 10.5 µM)
- MIC (Escherichia coli; E. coli AR0546, read-out: MIC): 0.5 µg/mL (≈ 1.31 µM)
- MIC (Escherichia coli; E. coli AR0551, read-out: MIC): 2 µg/mL (≈ 5.26 µM)
- MIC (Escherichia coli; E. coli AR0559, read-out: MIC): 2 µg/mL (≈ 5.26 µM)
- MIC (Escherichia coli; E. coli AR-0349 (colistin-resistant clinical isolate), read-out: MIC): 1 µg/mL (≈ 2.63 µM)
- MIC (Escherichia coli; E. coli AR-0549, read-out: MIC): 2 µg/mL (≈ 5.26 µM)
- MIC (Escherichia coli; E. coli ELZ 4004, read-out: MIC): 2 µg/mL (≈ 5.26 µM)
- MIC (Escherichia coli; E. coli ELZ 4017, read-out: MIC): 2 µg/mL (≈ 5.26 µM)
- MIC (Escherichia coli; E. coli ELZ 4042, read-out: MIC): 4 µg/mL (≈ 10.5 µM)
- MIC (Escherichia coli; E. coli ELZ 4072, read-out: MIC): 2 µg/mL (≈ 5.26 µM)
- MIC (Escherichia coli; E. coli ELZ 4081, read-out: MIC): 2 µg/mL (≈ 5.26 µM)
- MIC (Escherichia coli; E. coli ELZ 4139, read-out: MIC): 8 µg/mL (≈ 21 µM)
- MIC (Escherichia coli; E. coli ELZ 4239, read-out: MIC): 4 µg/mL (≈ 10.5 µM)
- MIC (Escherichia coli; E. coli ELZ 4277, read-out: MIC): 2 µg/mL (≈ 5.26 µM)
- MIC (Escherichia coli; E. coli ELZ 4346, read-out: MIC): 2 µg/mL (≈ 5.26 µM)
- MIC (Escherichia coli; E. coli ΔrfaC JW3596 (permeability mutant)): 0.06 µg/mL (≈ 0.158 µM)
- MIC (Escherichia coli; E. coli ΔtolC JW5503 (efflux-deficient)): 0.008 µg/mL (≈ 0.021 µM)
- MIC (Acinetobacter baumannii; ATCC19606, Acinetobacter baumannii ATCC 19606): > 128 µg/mL
- MIC (Acinetobacter baumannii; ATCC19606, Acinetobacter baumannii ATCC 19606 Δ3): 32 µg/mL (≈ 84.1 µM)
- MIC (Bacillus cereus): > 128 µg/mL
- MIC (Bacillus subtilis): > 128 µg/mL
- MIC (Enterococcus faecium): > 128 µg/mL
- MIC (Listeria monocytogenes): > 128 µg/mL
- MIC (Pseudomonas aeruginosa; Pseudomonas aeruginosa PAO1, read-out: MIC): > 128 µg/mL
- MIC (Pseudomonas aeruginosa; Pseudomonas aeruginosa PAO1 Δ6): > 128 µg/mL
- MIC (Staphylococcus aureus): > 128 µg/mL
- MIC [1]: > 128 µg/mL
- MIC (Streptococcus pneumoniae): > 128 µg/mL
- MIC (Streptococcus pyogenes): > 128 µg/mL
- MIC (Bacillus anthracis): > 128 µg/mL
- MIC (Enterococcus faecalis; Enterococcus faecalis): > 128 µg/mL
- MIC (Enterococcus faecalis; Enterococcus faecalis KLE 2341, BHI-ych, listed as Lolamycin): >128 µg/mL
- MIC (Enterococcus faecalis; Enterococcus faecalis, ATCC19433): > 128 µg/mL
- solubility (Aqueous solubility limit; aqueous medium (not further specified)): 128 µg/mL (≈ 336 µM)
- solubility (Aqueous solubility limit): 128 µg/mL (≈ 336 µM)
- reduction in bacterial burden (E. coli AR0349 [2]; 100 mg/kg IP twice a day for 3 days): 2 log
- reduction in bacterial burden vs vehicle (E. coli AR0349 [2]; 200 mg/kg PO twice a day for 3 days): 3 log
- mice with septic infection rescued (survival) (E. coli AR0349 [3]; 100 mg/kg IP twice daily for 3 days): 100%
- mice with septic infection rescued (survival) (E. coli AR0349 [3]; 200 mg/kg PO twice daily for 3 days): over 70%
- efficacy, bacterial burden (E. cloacae AR0163 [4]): showed the efficacy
- efficacy, survival (E. cloacae AR0163 [5]): showed the efficacy
- effect on gut microbiome taxonomic composition (gut microbiome): did not cause any drastic changes in taxonomic composition
- MIC (Bacteroides vulgatus; Bacteroides vulgatus KLE 2303, BHI-ych, listed as Lolamycin): >128 µg/mL
- MIC (Bacteroides vulgatus; Phocaeicola vulgatus): > 128 µg/mL
- MIC ([6]; Bacteroides cellulosilyticus): > 128 µg/mL
- MIC ([6]; Bacteroides cellulosilyticus KLE 2342, BHI-ych, listed as Lolamycin): >128 µg/mL
- MIC (Morganella morganii; ATCC25380): > 128 µg/mL
- MIC (Morganella morganii; ATCC25839): > 128 µg/mL
- MIC (Streptococcus salivarius; Streptococcus salivarius): > 128 µg/mL
- MIC (Streptococcus salivarius; Streptococcus salivarius KLE 2370, BHI-ych, listed as Lolamycin): >128 µg/mL
- MIC (Blautia producta): > 128 µg/mL
- MIC (Blautia producta; Blautia producta, ATCC27340): > 128 µg/mL
